Measured values: patent US20080113900A1, “Pharmaceutical compositions and therapeutic applications for the use of a synthetic vitamin B12 derivative, glutathionylcobalamin” (priority 2006, published 2008)
Values joined by “and” are separate entries in the source; they are usually repeats but may differ in a detail not shown here. Identical values can stand only once.

Columns and labels:
[1] = test system: SK-HEP-1 cells; assay: Protection from homocysteine-induced apoptosis, Caspase-3 activity (apoptosis assay); format: cell-based, human; conditions: 30 μM two hours, then 30 μM homocysteine two hours
Method: Caspase 3 is activated when cells undergo apoptosis. Caspase-3 assay is a standard for apoptosis assay. Homocysteine is a known inducer of apoptosis. Cells were cultured in 96-well plates for 24 hours and then treated with reagents under test conditions. Cytotoxic agents, H2O2 and etoposide were added to negative control wells. The assay was performed according to the manufacturer's protocol, as follows: Cells were re-suspended in 100 μl of clear media and 50 μl of Caspase-3 substrate solution was immediately added to each test well. […] Cell viability was determined by MTS® assay. […] Cell viability was determined by MTS® assay.

[2] = test system: SK-HEP-1 cells; assay: Effect of high concentrations of NACCbl and GSCbl on SK-HEP-1 cells (MTS assay, 24 hours); format: cell-based, human; conditions: for Cell viability by MTS assay (FIG. 13): SK-HEP-1, 3 replicates
[3] = test system: Hsp32; assay: Hsp32 gene expression (RT-PCR, densitometry); format: cell-based, human; conditions: SK-HEP-1; Sn (IX) protoporphyrin 25 μM; Quercitin 15 μM
Method: Cells were plated into 6-, 12-, or 24-well cell culture clusters, at 2×10^3, 2×10^5, or 1×10^5 cells per well and incubated until 90% confluent. Treatments were applied as above.
Following incubation, cells were subjected to mRNA extraction followed by cDNA synthesis for each sample under test. Polymerase chain reaction cDNA templates were prepared for simplex PCR protocol. PCR products were then visualized using a UV Transilluminator and images captured using a Kodak ID gel imaging system. Densitometry and statistical analysis was then performed on each gene expression band image using PSP® v 10.0 running under Windows XP®.
mRNA extraction was performed using the Quickprep micro mRNA Purification Kit. Following incubation of cells post-treatment, the media was removed from the cells, adherent cells were re-suspended in 0.4 ml extraction buffer and 0.8 ml elution buffer at 65° C. was added.
A reaction mixture was prepared in individual microcentrifuge tubes containing 2 cDNA synthesis beads, 32 μl of the mRNA solution and 1 μl of pd(N)6. This mixture was incubated at 37° C. in a water bath for 60 minutes. After incubation, 27 μl of RNase-free DEPC treated water was added to each tube to make a total volume 60 μl. cDNA samples were prepared in duplicate. Sample 1 was used immediately in RT-PCR protocol. Sample 2 was prepared for qPCR protocol by the addition of 150 μl of 95% ice-cold ethanol and stored at −20° C.
Microcentrifuge tubes from puReTaq™Ready-To-Go™ PCR Beads containing one PCR bead were labeled for each sample required. Added to the PCR bead were 17 μl of RNase-free DEPC treated water, 1 μl sense primer, 1 μl anti-sense primer and 5 μl of the cDNA solution. RT-PCR conditions were as follows: Hsp70 and β-actin, pre-treatment step, 94° C. for 1 minute, followed by denaturing at 92° C. for 1 minute, annealing at 60° C. for 1 minute and extension at 72° C. for 1 minute. Total cycles, 30, post-treatment was then carried out at 72° C. for 10 minutes. For Hsp32, pre-treatment step, 95° C. for 2 minutes, followed by denaturing at 94° C. for 30 seconds, annealing at 58° C. for 1 minute and extension at 72° C. for 1 minute. Total cycles 45, post treatment was then carried out at 72° C. for 10 minutes. Following RT-PCR, samples were stored at −20° C.
Gels were visualised on a UV Transilluminator. Photographs were stored using a Kodak Digital camera system fitted with a UV filter set connected to a PC. Images were then transferred to the Kodak ID gel imaging system. Densitometry was performed on each gene expression band using PSP™ v10 running under Windows XP®.
Experiments were conducted using Hsp32 and Hsp 70 gene expression as the basis for study. […] The densitometric data are presented as means ±SEM of n=3 separate experiments. *p<0.05 or **p<0.01, treatment vs. control.

[4] = test system: SK-HEP-1 cells; assay: Protection of endothelial cells from H2O2-induced cell death (MTS assay); format: cell-based, human; design: key to Cell viability (MTS assay): cell viability as % survival; conditions: for Cell viability (MTS assay): SK-HEP-1, n = 6 replicates
Method: The effect of increasing concentrations of NACCbl and GSCbl to protect endothelial cells from the effect of H2O2 was assessed. […] Cell viability was determined by MTS® assay. […] FIG. 3 illustrates that NACCbl and GSCbl protect endothelial cells from the effect of H2O2. […] Cell viability was determined by MTS® assay. […] There was no difference between the protection afforded by NACCbl and that by GSCbl. Both required 100 μM to achieve >80% survival.

[5] = test system: SK-HEP-1 cells; assay: Protection of endothelial cells from homocysteine-induced cell death (MTS assay); format: cell-based, human
Method: The effect of a constant concentration of NACCbl and GSCbl to protect cells against variable concentrations of homocysteine was assessed. […] Cell viability was determined by MTS® assay. Data shown in FIG. 4 are representative of means ±SE of 6 independent samples. FIG. 4 illustrates that NACCbl (▪) and GSCbl (▴) protect endothelial cells from the effect of homocysteine. […] Cell viability was determined by MTS® assay. […] There was a decrease in protection as homocysteine concentration increased, but there was still ˜60% survival at 50 μM homocysteine.
The data was normalized (log 2 and log 10) as shown in FIGS. 16 and 17 and Tables 16 and 17, respectively, below.

[6] = test system: SK-HEP-1 cells; assay: Protection of endothelial cells from H2O2-induced cell death (MTS assay); format: cell-based, human; design: key to Cell viability (MTS assay): cell viability as % survival; conditions: SK-HEP-1, n = 6 replicates
[7] = Decomposition in PBS at 37° C. monitored by UV/Vis spectrophotometry; format: physicochemical
Method: The decomposition of GSCbl, NACCbl, and HcyCbl in PBS at 37° C. was monitored by UV/Vis spectrophotometry.

[8] = biological target: T1, methionine synthase (Oryctolagus cuniculus, UniProt G1SXW3); conditions: rabbit spleen extracts; cited from earlier work
T1 construct: methionine synthase activity in rabbit spleen extracts; from tissue; host or cells: rabbit spleen extract
T1 sequence (G1SXW3 1-1218): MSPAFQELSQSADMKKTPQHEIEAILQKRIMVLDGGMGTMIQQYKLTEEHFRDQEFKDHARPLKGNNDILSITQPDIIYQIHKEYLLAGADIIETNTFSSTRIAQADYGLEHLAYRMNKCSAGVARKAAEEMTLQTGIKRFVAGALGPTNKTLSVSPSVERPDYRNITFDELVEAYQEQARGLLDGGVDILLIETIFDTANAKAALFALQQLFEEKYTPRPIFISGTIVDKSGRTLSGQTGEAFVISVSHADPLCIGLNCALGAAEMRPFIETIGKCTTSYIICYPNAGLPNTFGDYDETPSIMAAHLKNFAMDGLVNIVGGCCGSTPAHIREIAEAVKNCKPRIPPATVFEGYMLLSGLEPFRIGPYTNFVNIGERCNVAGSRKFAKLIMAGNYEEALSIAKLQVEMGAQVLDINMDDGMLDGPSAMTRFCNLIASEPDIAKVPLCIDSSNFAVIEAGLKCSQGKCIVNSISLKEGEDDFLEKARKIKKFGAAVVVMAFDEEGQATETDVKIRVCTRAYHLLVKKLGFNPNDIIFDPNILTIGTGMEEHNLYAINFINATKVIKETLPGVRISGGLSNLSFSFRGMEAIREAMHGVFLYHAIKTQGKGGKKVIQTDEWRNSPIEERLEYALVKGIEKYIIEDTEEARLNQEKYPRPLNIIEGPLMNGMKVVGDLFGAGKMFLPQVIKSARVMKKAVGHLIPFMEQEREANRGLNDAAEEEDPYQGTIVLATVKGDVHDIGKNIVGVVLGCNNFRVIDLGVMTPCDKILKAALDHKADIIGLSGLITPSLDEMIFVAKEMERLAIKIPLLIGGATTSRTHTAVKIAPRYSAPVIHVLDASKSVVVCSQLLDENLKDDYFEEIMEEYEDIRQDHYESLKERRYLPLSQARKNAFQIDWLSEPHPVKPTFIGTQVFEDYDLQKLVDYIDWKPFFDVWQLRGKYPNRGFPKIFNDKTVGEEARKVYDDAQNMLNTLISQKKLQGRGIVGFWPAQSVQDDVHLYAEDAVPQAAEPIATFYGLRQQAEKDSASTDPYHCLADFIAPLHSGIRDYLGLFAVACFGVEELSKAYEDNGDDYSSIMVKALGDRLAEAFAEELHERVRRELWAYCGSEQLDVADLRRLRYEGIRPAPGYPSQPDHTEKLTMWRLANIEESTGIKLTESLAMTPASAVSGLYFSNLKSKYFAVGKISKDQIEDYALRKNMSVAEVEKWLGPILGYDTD

[9] = test system: SK-HEP-1 cells; conditions: 12.5 µM
[10] = test system: SK-HEP-1 cells; assay: Effect of homocysteine and H2O2 on endothelial cell viability (MTS assay); conditions: for Cell viability (MTS assay): SK-HEP-1, 2 hours, n = 6 replicates
[11] = in vitro; conditions: human, SK-HEP-1 cells

C/C1=C2N=C(/C=C3N=C(/C(C)=C4\[N-]C(C(CC(N)=O)C4(C)CCC(=O)NCC(C)OP(=O)([O-])OC4C(CO)OC(n5cnc6cc(C)c(C)cc65)C4O)C4(C)N=C1C(CCC(N)=O)C4(C)CC(N)=O)C(CCC(N)=O)C\3(C)C)C(CCC(N)=O)C/2(C)CC(N)=O.NC(CCC(=O)NC(C[S-])C(=O)NCC(=O)O)C(=O)O.[Co+3] (centres unmarked) [GSCbl, Glutathionylcobalamin]
Protection against apoptosis induced by homocysteine [1]: total protection | Cell viability by MTS assay (FIG. 13) ([2]; compound conc. 0.61, 24 hours): 2.554 and 2.376 and 2.53 | Cell viability by MTS assay (FIG. 13) ([2]; compound conc. 1.22, 24 hours): 2.347 and 2.433 and 2.503 | Cell viability by MTS assay (FIG. 13) ([2]; compound conc. 2.441, 24 hours): 2.527 and 2.434 and 2.46 | Cell viability by MTS assay (FIG. 13) ([2]; compound conc. 4.882, 24 hours): 2.543 and 2.528 and 2.519 | Cell viability by MTS assay (FIG. 13) ([2]; compound conc. 9.765, 24 hours): 2.532 and 2.476 and 2.42 | Cell viability by MTS assay (FIG. 13) ([2]; compound conc. 19.531, 24 hours): 2.553 and 2.476 and 2.42 | Cell viability by MTS assay (FIG. 13) ([2]; compound conc. 39.062, 24 hours): 2.492 and 2.484 and 2.468 | Cell viability by MTS assay (FIG. 13) ([2]; compound conc. 78.125, 24 hours): 2.444 and 2.406 and 2.402 | Cell viability by MTS assay (FIG. 13) ([2]; compound conc. 156.25, 24 hours): 2.407 and 2.37 and 2.318 | Cell viability by MTS assay (FIG. 13) ([2]; compound conc. 312.5, 24 hours): 2.306 and 2.204 and 2.138 | Cell viability by MTS assay (FIG. 13) ([2]; compound conc. 625, 24 hours): 2.197 and 1.912 and 1.787 | Cell viability by MTS assay (FIG. 13) ([2]; compound conc. 1250, 24 hours): 1.973 and 1.846 and 1.71 | Cell viability by MTS assay (FIG. 13) ([2]; compound conc. 2500, 24 hours): 1.775 and 1.81 and 1.896 | Cell viability by MTS assay (FIG. 13) ([2]; compound conc. 5000, 24 hours): 1.728 and 1.67 and 1.623 | Cell viability by MTS assay (FIG. 13) ([2]; compound conc. 10000, 24 hours): 1.322 and 1.342 and 1.366 | Cell death compared with NACCbl ([2]; above 0.2 mM concentration): caused greater cell death than NACCbl | Hsp32 gene expression [3]: induce Hsp32 | Difference between protection by NACCbl and by GSCbl ([4]; 25 μM H2O2 24 hours): no difference | Concentration required to achieve >80% survival ([4]; 2 hours, then 25 μM H2O2 24 hours): 100 µM | Protection from H2O2 ([4]; GSCbl 30 μM, above 7.5 μM H2O2): did not provide significant protection | Cell viability (MTS assay) ([4]; compound 30 μM two hours, then H2O2 200 μM a further two hours): 1.326 and 7.153 and 3.6 and 1.942 and 5.921 and 0.7579 | Cell viability (MTS assay) ([4]; compound concentration 6.25, 2 hours, then 25 μM H2O2 24 hours): 48.68 and 56.26 and 45.98 and 43.35 and 42.09 and 41.96 | Cell viability (MTS assay) ([4]; compound concentration 12.5, 2 hours, then 25 μM H2O2 24 hours): 44.27 and 54.35 and 50.53 and 47.04 and 44.14 and 42.09 | Cell viability (MTS assay) ([4]; compound concentration 25, 2 hours, then 25 μM H2O2 24 hours): 41.24 and 45.5863 and 42.23 and 45.26 and 41.7 and 44.99 | Cell viability (MTS assay) ([4]; compound concentration 100, 2 hours, then 25 μM H2O2 24 hours): 64.62 (2×) and 77.87 and 71.61 and 72.6 and 76.5481 | Cell viability (MTS assay) ([4]; compound concentration 200, 2 hours, then 25 μM H2O2 24 hours): 94.07 and 100.0659 and 102.8327 and 93.87 and 105.5995 and 94.73 | Concentration required for >80% survival protection ([5]; 2 hours, then 30 μM homocysteine 24 hours): 50 µM | Protection against homocysteine-induced damage compared with free thiols ([5]; Hcy 30 μM, NAC 45 μM, GSH 100 μM, NACCbl 12.5 μM, GSCbl 15 μM): superior to the free thiols | Mean (FIG. 14a, protection of SK-HEP-1 cells from Hcy in the presence of folate) ([5]; [Hcy] 30 μM, folate 25 μM present, [GSCbl] = 15 μM, [NACCbl] = 12.5 μM, [CNCbl] = 15 μM, [MeCbl] = 12.5 μM, [HOCbl] = 17.5 μM, [NAC] = 45 μM, [GSH] = 100 μM): 2.524 | Survival ([5]; compound 30 μM, 50 μM homocysteine): ~60% | Protection from homocysteine-induced cell death ([5]; pre-incubation 30 μM two hours, variable homocysteine two hours): protected cells from homocysteine-induced cell death | Cell viability (MTS assay) ([6]; compound 30 μM two hours, then H2O2 0 μM): 99.24 and 102.2264 and 105.5898 and 103.6002 and 104.0265 and 104.5476 | Cell viability (MTS assay) ([6]; compound 30 μM two hours, then H2O2 0.781 μM a further two hours): 96.12 and 98.39 and 97.3946 and 98.0578 and 96.02 and 95.31 | Cell viability (MTS assay) ([6]; compound 30 μM two hours, then H2O2 1.56 μM a further two hours): 93.56 and 90.81 (2×) and 92.33 and 88.25 and 91.8522 | Cell viability (MTS assay) ([6]; compound 30 μM two hours, then H2O2 3.125 μM a further two hours): 40.31 and 91.33 and 87.3046 and 82.33 and 79.77 and 77.59 | Cell viability (MTS assay) ([6]; compound 30 μM two hours, then H2O2 6.25 μM a further two hours): 36.52 and 39.7442 and 34.49 and 34.72 and 34.86 and 36.1 | Cell viability (MTS assay) ([6]; compound 30 μM two hours, then H2O2 12.5 μM a further two hours): 29.7963 and 32.02 and 36.1 and 32.4 and 29.99 and 33.92 | Cell viability (MTS assay) ([6]; compound 30 μM two hours, then H2O2 25 μM a further two hours): 23.54 and 26.53 and 22.93 and 24.44 and 22.03 and 20.42 | Cell viability (MTS assay) ([6]; compound 30 μM two hours, then H2O2 50 μM a further two hours): 15.02 and 20.8432 and 18.95 and 13.12 and 15.6324 and 17.62 | Cell viability (MTS assay) ([6]; compound 30 μM two hours, then H2O2 100 μM a further two hours): 10.8 and 12.36 and 11.5585 and 9.995 and 6.679 and 8.527 | Cell viability (MTS assay) ([6]; compound concentration 3.125, 2 hours, then 25 μM H2O2 24 hours): 20.88 and 30.9 and 21.34 and 26.8116 | Cell viability (MTS assay) ([6]; compound concentration 50, 2 hours, then 25 μM H2O2 24 hours): 42.69 and 45.72 and 48.16 and 46.9 and 46.77 and 51.84 | t1/2 [7]: No decomposition within 20 hours | Promotion of methionine synthase activity [8]: more active than other cobalamins

OO [H2O2, Hydrogen peroxide]
viability [9]: 11.3% and 10.1% and 11.8% and 11.7% and 12.4% | Concentration achieving greater than 90% death (<10% survival) ([10]; SK-HEP-1, 2 hours): 12.5 µM | Concentration sufficient to kill cultured endothelial cells ([10]; SK-HEP-1, 2 hours, P<0.001): ≥ 3 μm | Cell viability (MTS assay) ([10]; 0.781 μM): 102.4429 and 98.07 and 98.74 and 102.3076 and 99.02 | Cell viability (MTS assay) ([10]; 1.562 μM): 96.08 and 96.67 and 98.97 and 85.98 | Cell viability (MTS assay) ([10]; 3.125 μM): 46.88 and 52.02 and 50.62 and 52.38 and 82.7345 and 84.54 | Cell viability (MTS assay) ([10]; 6.25 μM): 33.89 and 32.31 and 35.2 and 32.54 and 30.46 | Cell viability (MTS assay) ([10]; 25 μM): 3.63 (2×) and 3.225 and 3.27 and 3.585 | Cell viability (MTS assay) ([10]; 50 μM): 0.4284 and 0.06765 and 0.4735 | viability at 2 h, 0.781 µM [11]: 99.4% | viability at 2 h, 1.562 µM [11]: 96.4% | viability at 2 h, 6.25 µM [11]: 32.6% | viability at 2 h, 12.5 µM [11]: 12.4% | viability at 2 h, 25 µM [11]: 3.18%
